{
  "source": "paper PMC11784013",
  "about": "“Potassium molybdate blocks APN-dependent coronavirus entry by degrading receptor via PIK3C3-mediated autophagy” (Journal of Virology, 2024)",
  "key": {"[1]": {"type": "in vivo", "details": "piglets, oral PM 100 mg/kg", "protocol": "Neonatal pigs spontaneously delivered from sows were confirmed to be negative for TGEV by RT-qPCR and enzyme-linked immunosorbent assay. For the cytotoxicity and pharmacokinetic parameters of the PM, three piglets were orally administered PM (100 mg/kg), and the serum was collected by venipuncture at 0, 1, 2, 4, 6, 8, 10, 12, 16, and 24 h after oral administration of PM for cytotoxicity assays and pharmacokinetic parameter determination. For antiviral animal experiments, piglets were randomly separated into four groups: the mock group ([3]), TGEV group ([3]), TGEV-PM-therapy group ([3]), and TGEV-PM-prevention group ([3]). For the TGEV group, neonatal pigs were orally administered 1.245 × 10^8 PFU TGEV Miller for 24 h. In addition, piglets in the TGEV-PM therapy group were orally infected with 1.245 × 10^8 PFU TGEV Miller and then treated with PM (100 mg/kg). For the TGEV-PM-prevention group, three neonatal pigs were orally pretreated with PM (100 mg/kg) for 24 h and subsequently inoculated with 1.245 × 10^8 PFU TGEV Miller for 24 h. The body weights of all piglets were recorded, and anal swabs were collected every 12 h. At 24 hpi, all pigs were euthanized, and intestinal tissues were collected for RT-qPCR, western blot, IFA, and pathological examination. All animals were handled in strict accordance with good animal practice according to the Animal Ethics Procedures and Guidelines of the People’s Republic of China, and the study was approved by The Animal Administration and Ethics Committee of Lanzhou Veterinary Research Institute, Chinese Academy of Agricultural Sciences (Permit No. LVRIAEC-2020-030).\nFig. S9. Cytotoxicity assay and t1/2 detection of PM in piglets. (A) The serum of piglets orally administered PM were collected at 1, 2, 4, 6, 8, 10, 12, 16 and 24 hours respectively and AST, CK and CREA level in those sera were measured by biochemical parameters. (B) PM concentrations at indicated times in piglets were determined by ICP-MS. Results are presented as mean ± SD of data from three independent experiments ns, no significant."}, "TGEV Miller": {"tested_on": "TGEV Miller", "assay": "TGEV infection of porcine intestinal organoids (monolayer, apical-out)", "type": "cell-based, transmissible gastroenteritis virus", "details": "RT-qPCR, TCID50, western blot", "protocol": "Fig 2 PM restricts TGEV and PRCV infection in porcine intestinal organoids. (A) Intestinal organoids cultured in 96-well plate were incubated with different concentrations of PM for 24 h, which was tested by Cell Counting Kit 8. (B and C) The intestinal organoids monolayer was treated with indicated PM and infected with TGEV Miller (0.1 MOI) for 24 h, which was measured by IFA (B), scale bar: 50 µm, RT-qPCR, TCID50, and western blot (C). (D) Apical-out intestinal organoids were treated with indicated PM and infected TGEV Miller (1 MOI) for 48 h, which was determined by RT-qPCR, TCID50, and western blot. (E and F) The intestinal organoids monolayer was treated with different concentrations of PM and infected with PRCV for 24 h, which was determined by IFA (E), scale bar: 50 µm, RT-qPCR, TCID50, and western blot (F). (G) Apical-out intestinal organoids were treated with indicated PM and infected PRCV (1 MOI) for 48 h, which was detected by RT-qPCR, TCID50, and western blot. Results are presented as mean ± SD of data from three independent experiments. **, P ≤ 0.01; ***, P ≤ 0.001.\nPorcine 3D ileum organoids coated with Matrigel for 1 week were dissociated by incubation in 5 mM cold EDTA buffer on a rotating platform for 1 h at 4°C. […]"}},
  "data": [
    {"compound": "[K+].[K+].[O]=[Mo](=[O])([O-])[O-]", "note": "[PM, potassium molybdate]", "values": [
      {"measurement": "t1/2", "setting": "[1]", "value": "approximately 12 h"},
      {"measurement": "AUC(0-t)", "setting": "[1]; serum, mean ± SD", "value": "975.253 ± 33.380", "unit": "µg·h/mL"},
      {"measurement": "AUC(0-∞)", "setting": "[1]; serum, mean ± SD", "value": "1,341.054 ± 21.475 mg/L*h"},
      {"measurement": "CLz/F", "setting": "[1]; serum, mean ± SD", "value": "1.23 ± 0.017", "unit": "mL/min/kg"},
      {"measurement": "Cmax", "setting": "[1]; serum, mean ± SD", "value": "62.645 ± 0.677", "unit": "µg/mL"},
      {"measurement": "MRT(0-t)", "setting": "[1]; serum, mean ± SD", "value": "10.735 ± 0.155", "unit": "h"},
      {"measurement": "MRT(0-∞)", "setting": "[1]; serum, mean ± SD", "value": "19.027 ± 1.388", "unit": "h"},
      {"measurement": "Tmax", "setting": "[1]; serum, mean ± SD", "value": "7.333 ± 2.309", "unit": "h"},
      {"measurement": "Vz/F", "setting": "[1]; serum, mean ± SD", "value": "1.267 ± 0.093", "unit": "L/kg"},
      {"measurement": "t1/2z", "setting": "[1]; serum, mean ± SD", "value": "11.784 ± 0.954", "unit": "h"},
      {"measurement": "TGEV infection in intestinal organoid monolayer", "setting": "TGEV Miller; TGEV Miller 0.1 MOI, 24 h, IFA, dose-dependent", "value": "significantly inhibited TGEV infection"},
      {"measurement": "TGEV infection in apical-out organoids", "setting": "TGEV Miller; TGEV Miller 1 MOI, 48 h", "value": "markedly inhibited TGEV infection"}
    ]}
  ]
}
